# Target: MCH receptor (Homo sapiens, UniProt Q99705)
# Experiment: High throughput functional screening FLIPR/FDSS6000: inhibition of MCH-evoked intracellular Ca2+ changes
# Assay type: cell-based
# Details: class by percent of control at 10^-7 M or IC50
# Summary of the method: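 Seed cells the day before, then load them with Fluo4-AM for one hour at 37° C and wash in HEPES-buffered HBSS, pH 7.4. Add compound for 3 min, then stimulate with 50 nM MCH. Monitor the calcium transient for 290 s.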
row,SMILES,class
1,CN(C)c1nc(N[C@H]2CC[C@@H](CNC(=O)Nc3ccc(-c4ccccc4)cc3)CC2)nc2ccccc12 [compound 562],3 (Class 3: The value of percent of control at 10^−7 M was more than 60% or the value of IC50 was more than 200 nM.)
2,COc1cc(OC)c(NC(=O)NC[C@H]2CC[C@@H](Nc3nc(N(C)C)c4ccccc4n3)CC2)cc1Cl [compound 563],3 (Class 3: The value of percent of control at 10^−7 M was more than 60% or the value of IC50 was more than 200 nM.)
3,COc1ccc(Cl)cc1NC(=O)NC[C@H]1CC[C@@H](Nc2nc(N(C)C)c3ccccc3n2)CC1 [compound 564],3 (Class 3: The value of percent of control at 10^−7 M was more than 60% or the value of IC50 was more than 200 nM.)
4,Cc1ccc(Cl)cc1NC(=O)NC[C@H]1CC[C@@H](Nc2nc(N(C)C)c3ccccc3n2)CC1 [compound 565],2 (Class 2: The value of percent of control at 10^−7 M was from 40% to 60% or the value of IC50 was from 50 nM to 200 nM.)
5,CN(C)c1nc(N[C@H]2CC[C@@H](CNC(=O)Nc3cc(Cl)ccc3[N+](=O)[O-])CC2)nc2ccccc12 [compound 566],3 (Class 3: The value of percent of control at 10^−7 M was more than 60% or the value of IC50 was more than 200 nM.)
6,"Cc1ccc(F)cc1NC(=O)NC[C@H]1CC[C@@H](Nc2nc(N(C)C)c3ccccc3n2)CC1 [compound 567, N-[(cis-4-{[4-(dimethylamino)quinazolin-2-yl]amino}cyclohexyl)methyl]-N′-(5-fluoro-2-methylphenyl)urea]",2 (Class 2: The value of percent of control at 10^−7 M was from 40% to 60% or the value of IC50 was from 50 nM to 200 nM.)
7,CN(C)c1nc(N[C@H]2CC[C@@H](CNC(=O)Nc3ccc4c(c3)CCC4)CC2)nc2ccccc12 [compound 568],3 (Class 3: The value of percent of control at 10^−7 M was more than 60% or the value of IC50 was more than 200 nM.)
8,CN(C)c1nc(N[C@H]2CC[C@@H](CNC(=O)Nc3ccc4c(c3)Cc3ccccc3-4)CC2)nc2ccccc12 [compound 569],3 (Class 3: The value of percent of control at 10^−7 M was more than 60% or the value of IC50 was more than 200 nM.)
9,CN(C)c1nc(N[C@H]2CC[C@@H](CNC(=O)NC3c4ccccc4-c4ccccc43)CC2)nc2ccccc12 [compound 570],3 (Class 3: The value of percent of control at 10^−7 M was more than 60% or the value of IC50 was more than 200 nM.)
10,CN(C)c1nc(N[C@H]2CC[C@@H](CNC(=O)NCCc3ccccc3)CC2)nc2ccccc12 [compound 571],3 (Class 3: The value of percent of control at 10^−7 M was more than 60% or the value of IC50 was more than 200 nM.)
11,"CN(C)c1nc(N[C@H]2CC[C@@H](CNC(=O)NC3CCCC3)CC2)nc2ccccc12 [compound 572, N-cyclopentyl-N′-[(cis-4-{[4-(dimethylamino)quinazolin-2-yl]amino}cyclohexyl)methyl]urea]",2 (Class 2: The value of percent of control at 10^−7 M was from 40% to 60% or the value of IC50 was from 50 nM to 200 nM.)
12,"CN(C)c1nc(N[C@H]2CC[C@@H](CNC(=O)NC(c3ccccc3)c3ccccc3)CC2)nc2ccccc12 [compound 573, N-[(cis-4-{[4-(dimethylamino)quinazolin-2-yl]amino}cyclohexyl)methyl]-N′-(diphenylmethyl)urea]",1 (Class 1: The value of percent of control at 10^−7 M was less than 40% or the value of IC50 was less than 50 nM.)
13,COC(=O)c1ccc(NC(=O)NC[C@H]2CC[C@@H](Nc3nc(N(C)C)c4ccccc4n3)CC2)cc1 [compound 574],3 (Class 3: The value of percent of control at 10^−7 M was more than 60% or the value of IC50 was more than 200 nM.)
14,CN(C)c1nc(N[C@H]2CC[C@@H](CNC(=O)Nc3ccccc3OC(F)(F)F)CC2)nc2ccccc12 [compound 576],3 (Class 3: The value of percent of control at 10^−7 M was more than 60% or the value of IC50 was more than 200 nM.)
15,CC(=O)c1cccc(NC(=S)NC[C@H]2CC[C@@H](Nc3nc(N(C)C)c4ccccc4n3)CC2)c1 [compound 577],3 (Class 3: The value of percent of control at 10^−7 M was more than 60% or the value of IC50 was more than 200 nM.)
16,CC(=O)c1ccc(NC(=S)NC[C@H]2CC[C@@H](Nc3nc(N(C)C)c4ccccc4n3)CC2)cc1 [compound 578],3 (Class 3: The value of percent of control at 10^−7 M was more than 60% or the value of IC50 was more than 200 nM.)
17,CN(C)c1nc(N[C@H]2CC[C@@H](CNC(=S)Nc3cc(C(F)(F)F)cc(C(F)(F)F)c3)CC2)nc2ccccc12 [compound 579],3 (Class 3: The value of percent of control at 10^−7 M was more than 60% or the value of IC50 was more than 200 nM.)
18,CN(C)c1nc(N[C@H]2CC[C@@H](CNC(=S)NCc3ccccc3)CC2)nc2ccccc12 [compound 580],3 (Class 3: The value of percent of control at 10^−7 M was more than 60% or the value of IC50 was more than 200 nM.)
19,CN(C)c1nc(N[C@H]2CC[C@@H](CNC(=S)Nc3cccc(Br)c3)CC2)nc2ccccc12 [compound 581],3 (Class 3: The value of percent of control at 10^−7 M was more than 60% or the value of IC50 was more than 200 nM.)
20,CN(C)c1nc(N[C@H]2CC[C@@H](CNC(=S)Nc3ccc(Br)cc3)CC2)nc2ccccc12 [compound 582],3 (Class 3: The value of percent of control at 10^−7 M was more than 60% or the value of IC50 was more than 200 nM.)

row,SMILES,class
1,CCCCNC(=S)NC[C@H]1CC[C@@H](Nc2nc(N(C)C)c3ccccc3n2)CC1 [compound 583],3 (Class 3: The value of percent of control at 10^−7 M was more than 60% or the value of IC50 was more than 200 nM.)
2,CN(C)c1nc(N[C@H]2CC[C@@H](CNC(=S)Nc3ccc(C#N)cc3)CC2)nc2ccccc12 [compound 584],3 (Class 3: The value of percent of control at 10^−7 M was more than 60% or the value of IC50 was more than 200 nM.)
3,CN(C)c1nc(N[C@H]2CC[C@@H](CNC(=S)NC3CCCCC3)CC2)nc2ccccc12 [compound 585],3 (Class 3: The value of percent of control at 10^−7 M was more than 60% or the value of IC50 was more than 200 nM.)
4,CN(C)c1nc(N[C@H]2CC[C@@H](CNC(=S)NC3CCCC3)CC2)nc2ccccc12 [compound 586],3 (Class 3: The value of percent of control at 10^−7 M was more than 60% or the value of IC50 was more than 200 nM.)
5,CN(C)c1nc(N[C@H]2CC[C@@H](CNC(=S)Nc3cccc(Cl)c3)CC2)nc2ccccc12 [compound 587],3 (Class 3: The value of percent of control at 10^−7 M was more than 60% or the value of IC50 was more than 200 nM.)
6,CN(C)c1nc(N[C@H]2CC[C@@H](CNC(=S)Nc3ccc(Cl)cc3)CC2)nc2ccccc12 [compound 588],3 (Class 3: The value of percent of control at 10^−7 M was more than 60% or the value of IC50 was more than 200 nM.)
7,CN(C)c1nc(N[C@H]2CC[C@@H](CNC(=S)Nc3ccc(Cl)cc3Cl)CC2)nc2ccccc12 [compound 589],3 (Class 3: The value of percent of control at 10^−7 M was more than 60% or the value of IC50 was more than 200 nM.)
8,COc1ccc(NC(=S)NC[C@H]2CC[C@@H](Nc3nc(N(C)C)c4ccccc4n3)CC2)c(OC)c1 [compound 590],3 (Class 3: The value of percent of control at 10^−7 M was more than 60% or the value of IC50 was more than 200 nM.)
9,CN(C)c1nc(N[C@H]2CC[C@@H](CNC(=S)Nc3cc(F)ccc3F)CC2)nc2ccccc12 [compound 591],3 (Class 3: The value of percent of control at 10^−7 M was more than 60% or the value of IC50 was more than 200 nM.)
10,CN(C)c1nc(N[C@H]2CC[C@@H](CNC(=S)Nc3cc(Cl)ccc3Cl)CC2)nc2ccccc12 [compound 592],3 (Class 3: The value of percent of control at 10^−7 M was more than 60% or the value of IC50 was more than 200 nM.)
11,"Cc1cccc(C)c1NC(=S)NC[C@H]1CC[C@@H](Nc2nc(N(C)C)c3ccccc3n2)CC1 [compound 593, N-[(cis-4-{[4-(dimethylamino)quinazolin-2-yl]amino}cyclohexyl)methyl]-N′-(2,6-dimethylphenyl)thiourea]",2 (Class 2: The value of percent of control at 10^−7 M was from 40% to 60% or the value of IC50 was from 50 nM to 200 nM.)
12,CN(C)c1nc(N[C@H]2CC[C@@H](CNC(=S)Nc3ccc(Cl)c(Cl)c3)CC2)nc2ccccc12 [compound 594],3 (Class 3: The value of percent of control at 10^−7 M was more than 60% or the value of IC50 was more than 200 nM.)
13,CN(C)c1nc(N[C@H]2CC[C@@H](CNC(=S)Nc3c(Cl)cccc3Cl)CC2)nc2ccccc12 [compound 595],2 (Class 2: The value of percent of control at 10^−7 M was from 40% to 60% or the value of IC50 was from 50 nM to 200 nM.)
14,CCOc1ccc(NC(=S)NC[C@H]2CC[C@@H](Nc3nc(N(C)C)c4ccccc4n3)CC2)cc1 [compound 596],3 (Class 3: The value of percent of control at 10^−7 M was more than 60% or the value of IC50 was more than 200 nM.)
15,CCc1cccc(C(C)C)c1NC(=S)NC[C@H]1CC[C@@H](Nc2nc(N(C)C)c3ccccc3n2)CC1 [compound 597],2 (Class 2: The value of percent of control at 10^−7 M was from 40% to 60% or the value of IC50 was from 50 nM to 200 nM.)
16,CN(C)c1nc(N[C@H]2CC[C@@H](CNC(=S)NCc3ccco3)CC2)nc2ccccc12 [compound 598],3 (Class 3: The value of percent of control at 10^−7 M was more than 60% or the value of IC50 was more than 200 nM.)
17,CN(C)c1nc(N[C@H]2CC[C@@H](CNC(=S)Nc3ccc(F)cc3)CC2)nc2ccccc12 [compound 599],3 (Class 3: The value of percent of control at 10^−7 M was more than 60% or the value of IC50 was more than 200 nM.)
18,CCCCCCNC(=S)NC[C@H]1CC[C@@H](Nc2nc(N(C)C)c3ccccc3n2)CC1 [compound 600],3 (Class 3: The value of percent of control at 10^−7 M was more than 60% or the value of IC50 was more than 200 nM.)
19,CCC[C@H]1CC[C@H](c2ccc(NC(=S)NC[C@H]3CC[C@@H](Nc4nc(N(C)C)c5ccccc5n4)CC3)cc2)CC1 [compound 601],3 (Class 3: The value of percent of control at 10^−7 M was more than 60% or the value of IC50 was more than 200 nM.)

# Reference: patent US20070010671A1, “Novel quinazoline derivatives and methods of treatment related to the use thereof” (priority 2003, published 2007)
